pIC50: −log10 of the molar value. Like-named read-outs stand apart in the source and are kept apart here.
Experiments:
Format in all cases: cell-based
DMS-53 cells = experiment: CTG Assay (CellTiter-Glo Luminescent Cell Viability Assay), DMS-53; details: Homo sapiens
Experimental: (§1) Cell proliferation was measured using the CellTiter-Glo® Luminescent Cell Viability Assay. The assay involved the addition of a single reagent (CellTiter-Glo® Reagent) directly to cells cultured in serum-supplemented medium. DMS-53 (ATCC, CRL-2062), MV4-11 (ATCC, CRL-9591), MCF-7 (ATCC, HTB-22) and ZR-75-1 (ATCC, CRL-1500) cells were cultured according to ATCC recommendations and were seeded at 20,000 cells per well.
(§2) Each compound evaluated was prepared as a DMSO stock solution (10 mM). For DMS-53 and MV4-11 cell lines, Compounds 1 and 5a were tested in triplicate using the respective IC50 concentrations indicated in Table 2. The MCF-7 combination assay was performed in duplicate with a 10-point serial dilution curve (1:3 dilution) for Compounds 1 and 5a, and a 10-point serial dilution curve (1:5 dilution) when treated in combination. The highest compound concentration was 10 μM with a 0.1% final DMSO concentration. Plates were incubated at 37° C., 5% CO2 for 72 h and then equilibrated at room temperature for approximately 30 min. […] Luminescence (RLU (relative light unit)) was recorded using a SpectraMAX, M5e plate reader according to CellTiter-Glo protocol. Percent inhibition was calculated using the following formula: % inhibition=(RLU*100/(RLU of the cell background)). IC50 of each compound was calculated using GraphPad Prism by nonlinear regression analysis.

MV4-11 cells = experiment: CTG Assay (CellTiter-Glo Luminescent Cell Viability Assay), MV4-11; details: Homo sapiens
Experimental: as §1, §2

[1] = system: MCF-7 breast cancer cells; experiment: CTG Assay (CellTiter-Glo Luminescent Cell Viability Assay), MCF-7 combination assay; details: Homo sapiens, MCF7, 72 h, 10-point dilution, top 10 μM
Experimental: as §1, §2

[2] = system: ZR-75-1 breast cancer cells; experiment: CTG Assay (CellTiter-Glo Luminescent Cell Viability Assay), ZR-75-1; details: Homo sapiens, 72 h
Experimental: as §1, §2

[3] = single agent, IC50 used as test concentration, read-out: Concentration (respective IC50 concentration)
[4] = read-out: Absolute IC50 Based on % Inhibition
[5] = read-out: Relative IC50 Based on % Inhibition

SMILES: C=CCn1c(=O)c2cnc(Nc3ccc(N4CCN(C)CC4)cc3)nc2n1-c1cccc(C(C)(C)O)n1 [Compound 1]
- inhibition at 0.65 µM (DMS-53 cells; 650 nM, 72 h, triplicate): 37%
- pIC50 (DMS-53 cells; [3]): 6.19
- inhibition at 0.015 µM (MV4-11 cells; 15 nM, 72 h, triplicate): 37%
- pIC50 (MV4-11 cells; [3]): 7.82
- pIC50 [1, 4]: 6.46
- pIC50 [1, 5]: 6.51
- pIC50 [2, 4]: 5.75
- pIC50 [2, 5]: 5.91
